As a reminder, the IC50 is the concentration needed to halve the response being measured.

The assay addresses T1, bovine cerebral TPK1 (Bos taurus, UniProt A0A3Q1MT31).
T1 construct: bovine cerebral TPK1; from tissue; host or cells: bovine brain (cerebrum)
In words: Inhibitory activity against P-GS1 phosphorylation by bovine cerebral TPK1. The settings on record: 41.7 μM [γ-32P] ATP, 25° C. for 2 hours. The class given is biochemical. Here is the method: Inhibitory Activity of the Medicament of the Present Invention Against P-GS1 Phosphorylation by Bovine Cerebral TPK1
A mixture containing 100 mM MES-sodium hydroxide (pH 6.5), 1 mM magnesium acetate, 0.5 mM EGTA, 5 mM β-mercaptoethanol, 0.02% Tween 20, 10% glycerol, 12 μg/ml P-GS1, 41.7 μM [γ^−32P] ATP (68 kBq/ml), bovine cerebral TPK1 and a compound shown in Table (a final mixture contained 1.7% DMSO deriving from a solution of a test compound prepared in the presence of 10% DMSO) was used as a reaction system. The phosphorylation was started by adding ATP, and the reaction was conducted at 25° C. for 2 hours, and then stopped by adding 21% perchloric acid on ice cooling. The reaction mixture was centrifuged at 12,000 rpm for 5 minutes and adsorbed on P81 paper (Whatmann), and then the paper was washed four times with 75 mM phosphoric acid, three times with water and once with acetone. The paper was dried, and the residual radioactivity was measured using a liquid scintillation counter.

T1 sequence (A0A3Q1MT31 1-419): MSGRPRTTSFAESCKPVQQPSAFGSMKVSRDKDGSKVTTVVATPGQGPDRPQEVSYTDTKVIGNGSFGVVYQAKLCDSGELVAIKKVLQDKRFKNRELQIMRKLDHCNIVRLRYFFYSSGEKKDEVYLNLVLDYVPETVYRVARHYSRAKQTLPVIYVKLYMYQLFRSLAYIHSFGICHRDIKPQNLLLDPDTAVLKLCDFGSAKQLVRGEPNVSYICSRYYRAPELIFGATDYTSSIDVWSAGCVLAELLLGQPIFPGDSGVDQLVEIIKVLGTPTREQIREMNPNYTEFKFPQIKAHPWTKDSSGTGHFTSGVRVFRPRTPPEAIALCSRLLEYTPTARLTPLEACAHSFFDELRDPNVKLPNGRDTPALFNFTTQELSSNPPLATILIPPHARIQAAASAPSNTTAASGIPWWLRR

Consider `O=c1cc(-c2ccncn2)nc(N2CCO[C@@H](c3ccc(F)cc3)C2)[nH]1` [Compound 2, 2-[(2S)-2-(4-Fluorophenyl)morpholin-4-yl]-1H-[4,4′]bipyrimidinyl-6-one], for which it took 86.3 nM to reach half-maximal inhibition (IC50).
With `O=c1cc(-c2ccncc2F)nc(N2CCO[C@@H](c3ccc(F)cc3)C2)[nH]1` [Compound 3, 2-[(2S)-2-(4-Fluoro-phenyl)-morpholin-4-yl]-6-(3-fluoro-pyridin-4-yl)-3H-pyrimidin-4-one], half-maximal inhibition (IC50) was put at 59.8 nM.

For the origin of these results see patent US8592417B2, “2-substituted-6-heterocyclic pyrimidone derivatives as tau protein kinase 1 inhibitors” (Mitsubishi Tanabe Pharma Corporation, priority 2006, dated 2013).
